We go through 14 compounds from PMC7055224, “High-Throughput Screening to Predict Chemical-Assay Interference” (Scientific Reports, 2020).

Test [1] addresses T1, firefly-Luciferase (Photinus pyralis, UniProt P08659).
T1 construct: purchased Sigma-Aldrich (St. Louis, MO)
The experiment in a line: Luciferase (biochemical) qHTS assay, tox21-luc-biochem-p1, cell-free. The conditions noted are these: for AC50: no unit printed in the picture (text uses µM). From the text:
(§1) Three assay platforms were applied to analyze luciferase and fluorescence interference patterns using the Tox21 chemical screening library. […] The Tox21 chemical library (8,305 unique substances) was screened in triplicate concentration response in all assays, with concurrent cytotoxicity measurements where applicable.
The substrate D-Luciferin and the enzyme firefly-Luciferase were purchased from Sigma-Aldrich (St. Louis, MO). The positive control compound (PTC-124) was purchased from Santa Cruz Biotechnology, Inc. (Dallas, TX).
Three µL of the substrate (mixture containing 50 mM Tris-acetate pH 7.6, 13.3 mM magnesium acetate, 0.01 mM D-luciferin, 0.01 mM ATP, 0.01% Tween, 0.05% BSA and distilled H2O) was dispensed into medium-binding white/solid 1,536-well plates (Greiner Bio-One North America Inc., Monroe, NC) using a Flying Reagent Dispenser, FRD (Aurora Discovery, Carlsbad, CA). Then 23 nL of the test compounds (into 5–48 columns), PTC-124 and/or DMSO (into 1–4 columns) were transferred to the assay plates using a Pintool station (Wako, San Diego, CA). The positive control plate format is, column-1: sixteen-concentration two-fold titration of PTC-124 from 0.035 nM to 1.15 µM with duplicate points; columns-2 & 3 for the top half portions: 0.58 and 1.15 µM PTC-124 respectively and DMSO in the rest. Compound addition was followed by the addition of 1 μl of 10 nM enzyme (mixture containing 50 mM Tris-acetate, 0.04 µM firefly-Luciferase and distilled H2O) by using an FRD to all the wells of assay plate except in the 4th column which received the buffer instead. After 5 min incubation at room temperate, luminescence intensity was measured by a Viewlux plate reader (Perkin Elmer, Waltham, MA). Data were expressed as relative luminescence units. Each test compound was measured at 15 concentrations ranging from 1.5 nM to 115 µM and in triplicate.
For primary data analysis, raw plate reads for each titration point were first normalized relative to DMSO-only wells that received firefly-Luciferase (basal, 0%) and PTC-124 control wells that received firefly-Luciferase (0.58 µM, −100%) and then corrected by applying a pattern correction algorithm using compound-free control plates (DMSO plates). Concentration-response titration points for each compound replicate were fitted to the Hill equation and concentrations of half-maximal inhibition activity (IC50) and maximal response (efficacy) values were calculated; the mean of the IC50s was used as the representative value. Concentration response curves were designated as class 1–4 based on the quality of the fit, the number of points above background, and the response efficacy, as previously described (summarized in Supporting Information Table S1)[18],[20].
(§2) Finally, for autofluorescence assays, to avoid indications of generalized cell stress without specific biomolecular interactions, only AC50 below the burst cutoff defined in[23] were considered. Indeed, activity above this limit may result from triggering cell stress pathways, chemical reactivity, physico-chemical disruption of proteins or membranes, or broad low-affinity non-covalent interactions and not from a specific technology interference reaction. This filter was applied to distinguish chemical-structure driven autofluorescence from the increase in signal that has been observed due to cell stress. The distribution of the curve classes for active chemicals is presented in Supporting Information Fig. S1.

For test [2], the system named is HepG2 and HEK-293. The test is described as follows: Autofluorescence assays, green channel, the four conditions taken together. The conditions noted are these: for autofluorescence activity: example structures of SOM clusters 209, 173, 117. Here is the method:
(§3) Three assay platforms were applied to analyze luciferase and fluorescence interference patterns using the Tox21 chemical screening library.
(§4) HepG2 and HEK-293 cells were purchased from American Type Culture Collection (ATCC, Manassas, VA). HepG2 cells were cultured in Eagle’s Minimum Essential Medium (EMEM, ATCC) and HEK-293 cells in Dulbecco’s Modified Eagle’s Medium (DMEM, Life Technologies Corporation, Carlsbad, CA), and both supplemented with 10% Hyclone’s Fetal Bovine Serum (ThermoFisher Scientific, Waltham, MA), and 100 U/ml penicillin-100 µg/ml streptomycin (Life Technologies Corporation). Cells were cultured and maintained at 37 °C under a humidified atmosphere and 5% CO2.
(§5) HepG2 and HEK-293 cells were dispensed at 2,000/well in 5 µL of the culture medium into 1,536-well black/clear plates using a Multidrop™ Combi Reagent dispenser (ThermoFisher Scientific). In parallel, 5 µL/well of culture medium only were dispensed into 1,536-well black/clear plates. […] After respective incubation times, 23 nL of the compounds dissolved in DMSO, positive controls (fluorescein-green, triamterene-blue, and rose bengal-red) were transferred to the assay plates using Pintool station (Wako, San Diego, CA). […] Data were expressed as relative fluorescence units.
(§6) Analysis of compound concentration-response data was performed as previously described. Briefly, raw plate reads for each titration point were first normalized and then corrected by applying a pattern correction algorithm using compound-free control plates (DMSO plates)[22]. […] When normalizing to the positive control, the positive control response was set to 100% and negative control to 0% as follows: Activity(%)=([Vc−VDMSO]/[Vpos−VDMSO])×100, where Vc denotes the compound well values, Vpos denotes the median value of the positive control wells, and VDMSO denotes the median values of the DMSO-only wells. […] The following formula was used to normalize data to the negative control: Activity(%)=([Vc−VDMSO]/[VDMSO])×100 Concentration-response titration points for each compound were fitted to the Hill equation and concentrations of half-maximal activity (AC50) and maximal response (efficacy) values were calculated. Concentration response curves were designated as class 1–4 based on the quality of the fit, the number of points above background, and the response efficacy, as previously described (summarized in Supporting Information Table S1)[18],[20].
Finally, for autofluorescence assays, to avoid indications of generalized cell stress without specific biomolecular interactions, only AC50 below the burst cutoff defined in[23] were considered. […]

For test [3], the system named is HepG2 and HEK-293. The experiment in a line: Autofluorescence assays, all channels and culture conditions taken together. The conditions noted are these: for autofluorescence activity specific to one cell culture: among chemicals active within wavelengths, Fig. 8. Here is the method:
as §1, §4
(§7) HepG2 and HEK-293 cells were dispensed at 2,000/well in 5 µL of the culture medium into 1,536-well black/clear plates using a Multidrop™ Combi Reagent dispenser (ThermoFisher Scientific). In parallel, 5 µL/well of culture medium only were dispensed into 1,536-well black/clear plates. […] After respective incubation times, 23 nL of the compounds dissolved in DMSO, positive controls (fluorescein-green, triamterene-blue, and rose bengal-red) were transferred to the assay plates using Pintool station (Wako, San Diego, CA). […] The fluorescence intensity was measured using an Envision plate reader (Perkin Elmer, Waltham, MA) by using excitation/emission filters at 485/535 nm, 405/460 nm, and 540/590 nm for green, blue and red channels respectively. Data were expressed as relative fluorescence units. Each test compound was measured at 5 concentrations ranging from to 29 nM to 92 µM.
as §6
Finally, for autofluorescence assays, to avoid indications of generalized cell stress without specific biomolecular interactions, only AC50 below the burst cutoff defined in[23] were considered. Indeed, activity above this limit may result from triggering cell stress pathways, chemical reactivity, physico-chemical disruption of proteins or membranes, or broad low-affinity non-covalent interactions and not from a specific technology interference reaction. […]

Test [4] has as its system HepG2 and HEK-293. The test is described as follows: Autofluorescence assays, red channel, the four conditions taken together. Here is the method:
as §1, §4, §7
as §6, with “Concentration response curves were designated as class 1–4 based on the quality of the fit, the number of points above background, and the response efficacy, as previously described (summarized in Supporting Information Table S1)[18],[20].” left out

In test [5] the test system is HepG2 and HEK-293. The test is described as follows: Autofluorescence assays, blue channel, the four conditions taken together (HepG2/HEK-293, cell-based/cell-free). The settings on record: for autofluorescence activity specific to culture condition: Fig. 8A. Here is the method:
as §3, §4, §5, §6
as §2, with “stress.” for “stress. The distribution of the curve classes for active chemicals is presented in Supporting Information Fig. S1.”

The test system of test [6] is HepG2 cells. The test is described as follows: Autofluorescence qHTS, HepG2 cell based, green channel. The settings on record: Homo sapiens, green spectrum, unit inferred. Here is the method:
as §1
(§8) HepG2 and HEK-293 cells were purchased from American Type Culture Collection (ATCC, Manassas, VA). […]
(§9) HepG2 and HEK-293 cells were dispensed at 2,000/well in 5 µL of the culture medium into 1,536-well black/clear plates using a Multidrop™ Combi Reagent dispenser (ThermoFisher Scientific). […] The fluorescence intensity was measured using an Envision plate reader (Perkin Elmer, Waltham, MA) by using excitation/emission filters at 485/535 nm, 405/460 nm, and 540/590 nm for green, blue and red channels respectively. Data were expressed as relative fluorescence units. Each test compound was measured at 5 concentrations ranging from to 29 nM to 92 µM.
(§10) Analysis of compound concentration-response data was performed as previously described. Briefly, raw plate reads for each titration point were first normalized and then corrected by applying a pattern correction algorithm using compound-free control plates (DMSO plates)[22]. […]
(In qHTS, concentration-response curves come from the screen itself.)

The subject of test [7] is HEK-293 cells. The experiment in a line: Autofluorescence qHTS, HEK-293 cell based, green channel. The settings on record: Homo sapiens; Hek293 cell based, green spectrum; unit inferred. Here is the method:
as §1, §8, §9, §10

The mark [8] stands for this setting: all four assay conditions, read-out: AC50s.

Read-outs that look alike come from different tables or passages of the source. Where only a bound is given, the exact number is not on record here.

T1 sequence (P08659 whole entry): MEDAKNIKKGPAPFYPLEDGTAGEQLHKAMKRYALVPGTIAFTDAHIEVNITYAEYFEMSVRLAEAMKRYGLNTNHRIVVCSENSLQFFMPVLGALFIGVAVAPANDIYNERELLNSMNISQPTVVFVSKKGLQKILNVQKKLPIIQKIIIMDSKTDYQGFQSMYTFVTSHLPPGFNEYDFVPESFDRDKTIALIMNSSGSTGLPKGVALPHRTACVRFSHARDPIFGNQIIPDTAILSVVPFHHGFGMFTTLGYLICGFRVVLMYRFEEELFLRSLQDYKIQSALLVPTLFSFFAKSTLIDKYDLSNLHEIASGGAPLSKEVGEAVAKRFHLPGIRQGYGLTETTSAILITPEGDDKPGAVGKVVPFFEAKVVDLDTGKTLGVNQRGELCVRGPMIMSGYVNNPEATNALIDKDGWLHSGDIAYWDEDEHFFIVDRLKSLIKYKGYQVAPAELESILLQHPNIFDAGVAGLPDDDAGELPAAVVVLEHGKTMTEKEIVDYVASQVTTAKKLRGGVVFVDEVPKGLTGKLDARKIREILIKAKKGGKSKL

For the compound `[O-][n+]1ccccc1S` [13463-41-7], the IC50 in test [1] (after filtering, no unit printed in the sheet, read-out: Luc_IC50) is 0.481 µM.

As for `O=C1CCCO1` [Chemical 32], the autofluorescence activity entry was “Active” in test [2]; “autofluorescent in both the green and red channel” in test [3] (green and red channel, SOM cluster 209).

Regarding `CC(CO)NC(=O)C1C=C2c3cccc4[nH]cc(c34)CC2N(C)C1` (centres unmarked) [Chemical 36], in test [2], the autofluorescence activity result is on record as “actives”.

For `O=C(O)CCCc1ccc(N(CCCl)CCCl)cc1` [Chemical 44], in test [4] (example structures of SOM clusters 194 (219 in Fig. 6) and 143), the autofluorescence activity result is listed as “actives”.

For the compound `CCCNC(=O)NS(=O)(=O)c1ccc(Cl)cc1` [Chemical 49], the “autofluorescence activity specific to one cell culture” value in test [3] is reported as “active only on HEK-293”.

With `OC[C@H]1O[C@@H]2O[C@H]3[C@H](O)[C@@H](O)[C@@H](O[C@H]4[C@H](O)[C@@H](O)[C@@H](O[C@H]5[C@H](O)[C@@H](O)[C@@H](O[C@H]6[C@H](O)[C@@H](O)[C@@H](O[C@H]7[C@H](O)[C@@H](O)[C@@H](O[C@H]8[C@H](O)[C@@H](O)[C@@H](O[C@H]1[C@H](O)[C@H]2O)O[C@@H]8CO)O[C@@H]7CO)O[C@@H]6CO)O[C@@H]5CO)O[C@@H]4CO)O[C@@H]3CO` [Chemical 58], the “autofluorescence activity specific to culture condition” value in test [5] is recorded as “active only in the HEK-293 cell-free condition”.

On to `O=C1CCCCC1` [Chemical 59], for which, in test [5], the “autofluorescence activity specific to culture condition” value was “active only in the HEK-293 cell-free condition”.

Take `CN(C)N=Nc1nc[nH]c1C(N)=O` [Chemical 63]: the “autofluorescence activity specific to one cell culture” value in test [3] was “active specifically on the HepG2 culture”.

Regarding `Nc1ccc(N)cc1` [Chemical 77], in test [3], the “autofluorescence activity specific to one cell culture” value is given as “active only on HEK-293”.

As to `Nc1ccc(N)c2ccccc12` [Chemical 79], in test [3], the “autofluorescence activity specific to one cell culture” value was “active specifically on the HepG2 culture”.

The compound `O=C(O)c1cccc(-c2noc(-c3ccccc3F)n2)c1` [PTC-124, Ataluren] showed a response curve class in test [1] of −1.1. Besides, the IC50 in test [1] (estimated, based on triplicate measurements, read-out: IC50) is under 0.02 µM. Besides, the AC50 (as a rule, the concentration at which the activity in the assay is half-maximal) in test [1] (set1) is 0.00871 µM; in test [1] (set2), 0.0195 µM; in test [1] (set3) it was 0.0195 µM.

For the compound `O=C1OC2(c3ccc(O)cc3Oc3cc(O)ccc32)c2ccccc21` [fluorescein], the values for the AC50 in test [6] and in test [7] were 3.16 µM and 2.82 µM, respectively. Besides, the curve class in test [2] (all four assay conditions) is listed as 1.1. The EC50 in test [2] (setting [8]) is under 4 µM.

rose bengal: the response curve class in test [4] (all four assay conditions) came out at 2.1. In addition, the EC50 in test [4] (setting [8]) is under 12 µM. For the same compound, the efficacy in test [4] (incomplete response) is listed as over 80%.

In the case of triamterene [Tiramterene], in test [5] (all four assay conditions), the response curve class came out at 2.1. In addition, in test [5] (setting [8]), the EC50 is under 40 µM. This compound also displayed an efficacy in test [5] (incomplete response) of over 80%.
